The values that follow are results of earlier work, collected in patent US20050095286A1, “Extended release compositions” (Fabre Kramer Pharmaceuticals, Inc., priority 2003, published 2005).

For data set [1], the target named is D2-receptor binding sites (Homo sapiens, UniProt P14416). Particulars: background statement, U.S. Pat. No. 5,010,078.
For data set [2], the target named is T1, 5-HT1A receptor binding sites (Homo sapiens, UniProt P08908).
T1 sequence (P08908 1-422): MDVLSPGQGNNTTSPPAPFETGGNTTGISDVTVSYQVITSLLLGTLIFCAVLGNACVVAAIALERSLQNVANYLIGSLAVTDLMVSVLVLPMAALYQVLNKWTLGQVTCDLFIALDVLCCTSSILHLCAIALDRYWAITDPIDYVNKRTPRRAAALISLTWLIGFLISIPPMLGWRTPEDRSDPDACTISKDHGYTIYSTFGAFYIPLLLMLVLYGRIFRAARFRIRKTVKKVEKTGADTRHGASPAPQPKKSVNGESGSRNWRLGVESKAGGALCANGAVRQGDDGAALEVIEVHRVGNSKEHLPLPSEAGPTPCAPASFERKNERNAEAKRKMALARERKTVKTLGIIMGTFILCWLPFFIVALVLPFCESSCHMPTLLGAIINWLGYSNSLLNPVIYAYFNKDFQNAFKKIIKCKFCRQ
Conditions: background statement, U.S. Pat. No. 5,010,078.

The target in a further data set is T2, 5HT1a-receptors (Homo sapiens, UniProt P08908).
T2 sequence (P08908 1-422): T1 sequence (P08908 1-422)
Particulars: background statement.

The conditions of data set [3]: background statement.

Sequence of D2-receptor binding sites (P14416 whole entry): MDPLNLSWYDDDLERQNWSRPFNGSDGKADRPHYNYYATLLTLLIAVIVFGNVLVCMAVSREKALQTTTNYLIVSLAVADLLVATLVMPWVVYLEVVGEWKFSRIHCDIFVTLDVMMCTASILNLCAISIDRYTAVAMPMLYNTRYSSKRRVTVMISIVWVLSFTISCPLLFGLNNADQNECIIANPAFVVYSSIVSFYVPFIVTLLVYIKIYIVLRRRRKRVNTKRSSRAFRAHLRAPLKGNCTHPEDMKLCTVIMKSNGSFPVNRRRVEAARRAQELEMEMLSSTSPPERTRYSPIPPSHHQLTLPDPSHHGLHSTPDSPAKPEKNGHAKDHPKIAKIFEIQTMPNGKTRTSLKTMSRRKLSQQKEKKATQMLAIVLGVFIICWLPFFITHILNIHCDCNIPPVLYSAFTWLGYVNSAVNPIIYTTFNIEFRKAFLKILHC

For `O=C(NCCN1CCN(c2ncccn2)CC1)[C@]12C[C@H]3C[C@@H](C[C@H](C3)C1)C2` [adatanserin], the “affinity for the D2-receptor binding site” value in data set [1] is “high affinity”. For the same compound, in data set [2], the “affinity for the 5-HT1A receptor binding site” value is recorded as “high affinity”; the “selectivity at the 5-HT1A and 5-HT2 versus D2 receptor binding sites” value is given as “demonstrated selectivity”.

In the case of `Cl.O=c1c(CO)coc2cc(OCCCN3CCC(c4noc5cc(F)ccc45)CC3)ccc12` [abaperidone], at 5HT1a-receptors, the “affinity to 5HT1a-receptors” value was “high affinity”. Also, the therapeutic index result in data set [3] is recorded as “high therapeutic index”.
